The values below come from ChEMBL document CHEMBL4715725, “Structure-activity relationship studies on acremomannolipin A, the potent calcium signal modulator with a novel glycolipid structure 4: Role of acyl side chains on d-mannose” (Eur J Med Chem, 2016).

Activity calls are given as the source filed them. The rule behind the calls is not given here.

This test deals with Schizosaccharomyces pombe. The test can be described thus: Suppression of Cl-sensitive growth defect in Schizosaccharomyces pombe harboring h+leu1 ura4-D18 ppb1::ura4+ mutant assessed as colony formation at 100 uM measured after 3 days in presence of MgCl2 by disc filter paper. It is filed as functional, organism-based. To be noted: time 3.0 day.
In the case of `CCCCCCCCCCCCCC(=O)O[C@@H]1[C@H](OC[C@@H](O)[C@@H](O)[C@H](O)[C@H](O)CO)O[C@H](COC(=O)CCCCC)[C@@H](OC(=O)CCCCC)[C@@H]1OC(=O)CCCCC`, the outcome was Active. Then `CCCCCCCC(=O)O[C@@H]1[C@H](OC[C@@H](O)[C@@H](O)[C@H](O)[C@H](O)CO)O[C@H](COC(=O)CC)[C@@H](OC(=O)CC)[C@@H]1OC(=O)CC`, with “Active”; and `CCCCCCCCCC(=O)O[C@@H]1[C@H](OC[C@@H](O)[C@@H](O)[C@H](O)[C@H](O)CO)O[C@H](COC(=O)CCCCC)[C@@H](OC(=O)CCCCC)[C@@H]1OC(=O)CCCCC`, with “Active”. Consider `CCCC(=O)OC[C@H]1O[C@@H](OC[C@@H](O)[C@@H](O)[C@H](O)[C@H](O)CO)[C@@H](OC(=O)CCC)[C@@H](OC(=O)CCC)[C@@H]1OC(=O)CCC`, for which the outcome was Active. On to `CCCCCCCC(=O)O[C@@H]1[C@H](OC[C@@H](O)[C@@H](O)[C@H](O)[C@H](O)CO)O[C@H](COC(=O)CCC)[C@@H](OC(=O)CCC)[C@@H]1OC(=O)CCC`, for which the outcome was Active.

As to `CCCCCCCC(=O)OC[C@H]1O[C@@H](OC[C@@H](O)[C@@H](O)[C@H](O)[C@H](O)CO)[C@@H](OC(=O)CCCCCCC)[C@@H](OC(=O)CCCCCCC)[C@@H]1OC(=O)CCCCCCC`, the outcome was Active.

With `CCCCC(=O)OC[C@H]1O[C@@H](OC[C@@H](O)[C@@H](O)[C@H](O)[C@H](O)CO)[C@@H](OC(=O)CCCC)[C@@H](OC(=O)CCCC)[C@@H]1OC(=O)CCCC`, the outcome was Active. Then `CCCCCC(=O)OC[C@H]1O[C@@H](OC[C@@H](O)[C@@H](O)[C@H](O)[C@H](O)CO)[C@@H](OC(=O)CCCC)[C@@H](OC(=O)CCCCC)[C@@H]1OC(=O)CCCCC`, with “Active”.

In the case of `CCCCCCCC(=O)O[C@@H]1[C@H](OC[C@@H](O)[C@@H](O)[C@H](O)[C@H](O)CO)O[C@H](COC(=O)CCCCC)[C@@H](OC(=O)CCCCC)[C@@H]1O`, the result was inactive.

Regarding `CCCCCCCC(=O)O[C@@H]1[C@H](OC[C@@H](O)[C@@H](O)[C@H](O)[C@H](O)CO)O[C@H](CO)[C@@H](O)[C@@H]1OC(=O)CCCCC`, the result was inactive. For `CCCCCCCC(=O)O[C@@H]1[C@H](OC[C@@H](O)[C@@H](O)[C@H](O)[C@H](O)CO)O[C@H](COC(=O)CCCC)[C@@H](OC(=O)CCCC)[C@@H]1OC(=O)CCCC` the value was “Active”; for `CCCCCCCCCCC(=O)O[C@@H]1[C@H](OC[C@@H](O)[C@@H](O)[C@H](O)[C@H](O)CO)O[C@H](COC(=O)CCCCC)[C@@H](OC(=O)CCCCC)[C@@H]1OC(=O)CCCCC`, “Active”.

Take `CCCCCCCCCCCCCCCC(=O)O[C@@H]1[C@H](OC[C@@H](O)[C@@H](O)[C@H](O)[C@H](O)CO)O[C@H](COC(=O)CCCCC)[C@@H](OC(=O)CCCCC)[C@@H]1OC(=O)CCCCC`: the result was Active. For `CCCCCC(=O)OC[C@H]1O[C@@H](OC[C@@H](O)[C@@H](O)[C@H](O)[C@H](O)CO)[C@@H](OC(=O)CCCCC)[C@@H](OC(=O)CCCCC)[C@@H]1OC(=O)CCCCC` the value was “Active”; for `CCC(=O)OC[C@H]1O[C@@H](OC[C@@H](O)[C@@H](O)[C@H](O)[C@H](O)CO)[C@@H](OC(=O)CC)[C@@H](OC(=O)CC)[C@@H]1OC(=O)CC`, “Active”. Then `CCCCCCCC(=O)O[C@@H]1[C@H](OC[C@@H](O)[C@@H](O)[C@H](O)[C@H](O)CO)O[C@H](COC(=O)CCCCC)[C@@H](OC(=O)CCCCC)[C@@H]1OC(=O)CCCCC`, with “Active”; and `CCCCCC(=O)OC[C@H]1O[C@@H](OC[C@@H](O)[C@@H](O)[C@H](O)[C@H](O)CO)[C@@H](OC(=O)CCC)[C@@H](OC(=O)CCCCC)[C@@H]1OC(=O)CCCCC`, with “Active”; and `CCCCCCCC(=O)O[C@@H]1[C@H](OC[C@@H](O)[C@@H](O)[C@H](O)[C@H](O)CO)O[C@H](COC(=O)CCCCCC)[C@@H](OC(=O)CCCCCC)[C@@H]1OC(=O)CCCCCC`, with “Active”.

As to `CCCCCCCCCCCC(=O)O[C@@H]1[C@H](OC[C@@H](O)[C@@H](O)[C@H](O)[C@H](O)CO)O[C@H](COC(=O)CCCCC)[C@@H](OC(=O)CCCCC)[C@@H]1OC(=O)CCCCC`, the outcome was Active. As for `CCCCCC(=O)OC[C@H]1O[C@@H](OC[C@@H](O)[C@@H](O)[C@H](O)[C@H](O)CO)[C@@H](OC(=O)CC)[C@@H](OC(=O)CCCCC)[C@@H]1OC(=O)CCCCC`, the outcome was Active.

As to `CCCCCCC(=O)O[C@@H]1[C@H](OC[C@@H](O)[C@@H](O)[C@H](O)[C@H](O)CO)O[C@H](COC(=O)CCCCC)[C@@H](OC(=O)CCCCC)[C@@H]1OC(=O)CCCCC`, the result was Active. For `CCCCCCC(=O)OC[C@H]1O[C@@H](OC[C@@H](O)[C@@H](O)[C@H](O)[C@H](O)CO)[C@@H](OC(=O)CCCCCC)[C@@H](OC(=O)CCCCCC)[C@@H]1OC(=O)CCCCCC` the value was “Active”; for `CCCCCCCCC(=O)O[C@@H]1[C@H](OC[C@@H](O)[C@@H](O)[C@H](O)[C@H](O)CO)O[C@H](COC(=O)CCCCC)[C@@H](OC(=O)CCCCC)[C@@H]1OC(=O)CCCCC`, “Active”. For `CCCCCC(=O)OC[C@H]1O[C@@H](OC[C@@H](O)[C@@H](O)[C@H](O)[C@H](O)CO)[C@@H](O)[C@@H](OC(=O)CCCCC)[C@@H]1OC(=O)CCCCC`, the outcome was inactive.
